The results in this text go back to US20260115197A1, “TREATMENT COMPOSITION FOR INHIBITING SYSTEMIC SCLEROSIS VIMENTIN MUTANT PROTEIN ACTIVITY BY USING STAT6 INHIBITOR” (THE CATHOLIC UNIVERSITY OF KOREA INDUSTRY-ACADEMIC …, priority 2022, published 2026).

For one assay, the system named is spleen single cells. Nature of the assay: Control of fibrosis-related immunocytes in TGF-β-treated spleen single cells, flow cytometry. It is filed as cell-based, B6 mouse. The following applies: 10 nM, with 10 ng/ml TGF-β, 72 hours; vs TGF-β alone. As for the experimental part: In order to identify an effect of inhibiting signal transducer and activator of transcription 6 (STAT6) on systemic sclerosis of the present disclosure, the control effect of immunocytes related to fibrosis was identified. Specifically, spleen single cells were obtained from a B6 mouse, treated with 10 ng/ml of transforming growth factor-β (TGF-β) and 10 nM of a STAT6 inhibitor (YM-341619, Chemical Formula 1), and then cultured for 72 hours. The expression of profibrotic T cells, M2 macrophages, and Treg related to systemic sclerosis was analyzed by flow cytometry. In addition, the expression ratio of M2 macrophages and M1 macrophages was identified to identify the control of immunocytes. As a control group, an untreated control group (Nil) and a group treated with TGF-β alone were used.
For orientation: Flow cytometry measures light scatter and fluorescence of single cells or particles in a stream.

Assay [1] deals with human dermal fibroblast line. The assay is described as follows: Expression of fibrosis genes in TGF-β-treated fibroblasts, real-time PCR. It is filed as cell-based. The following applies: with 10 ng/ml TGF-β, 24 hours; vs TGF-β alone. The method, then: In order to identify the effect of STAT6 inhibition on systemic sclerosis of the present disclosure, inhibition of fibrosis genes of fibroblasts was identified. Specifically, a human dermal fibroblast line was treated with 10 ng/ml of TGF-β and […] of an STAT6 inhibitor and then cultured for 24 hours. Thereafter, the expression of fibrosis factors, TGF-β, Col1a1 (Collagen, type I, alpha 1), and α-SMA 10 (alpha smooth muscle actin), was identified by real-time PCR.
A general note: Real-time PCR tracks product formation cycle by cycle.

In another assay the test system is M2 macrophages. The assay is described as follows: M2 macrophage activity in blood of bleomycin-induced systemic sclerosis animal model, flow cytometry. The following applies: 10 mg/kg orally daily; BLM-induced; vs Vehicle group. It is filed as in vivo, B6 mouse. As for the experimental part: (§1) To determine whether the STAT6 inhibitor of the present disclosure alleviated systemic sclerosis, a systemic sclerosis animal model was constructed. Specifically, a 2×2 cm area on the nape of the neck of the B6 mouse was shaved using a clipper, and then subcutaneously injected with 100 μL of PBS containing 50 μg of bleomycin (BLM) daily for 2 weeks to induce systemic sclerosis. One week after the start of BLM administration, 200 μL of vehicle solution (10% DMSO, 40% PEG300, 5% tween 80 and 45% Saline) containing the STAT6 inhibitor at a concentration of 10 mg/kg was orally administered daily. Thereafter, the blood from the mouse was collected on week 1 and week 5 after induction of systemic sclerosis, and the activity of M2 macrophages capable of inducing fibrosis from the collected blood was analyzed using flow cytometry. As a control group, a wild-type mouse (WT) and a Vehicle group that was induced with systemic sclerosis but not treated with a drug were used.

In assay [2] the test system is systemic sclerosis animal model. The assay is described as follows: Skin fibrosis in systemic sclerosis animal model, H&E staining. The following applies: 10 mg/kg orally daily; BLM-induced; vs Vehicle group. It is filed as in vivo, B6 mouse. As for the experimental part:
as §1
To determine whether the STAT6 inhibitor of the present disclosure alleviated systemic sclerosis, inhibition of skin fibrosis was identified. […]

For assay [3] the test system is unchanged. The assay is described as follows: Pulmonary fibrosis in systemic sclerosis animal model, H&E staining. The conditions noted are these: 10 mg/kg orally daily; BLM-induced; vs Vehicle group. It counts as in vivo, B6 mouse. As for the experimental part: as §1
It has been identified whether the STAT6 inhibition of the present disclosure inhibited pulmonary fibrosis in systemic sclerosis. Specifically, a lung tissue was obtained from the mouse sacrificed in the Example 4-1 above, and subjected to H&E staining to determine the histological score for pulmonary fibrosis.

The subject of assay [4] is cell surface Vimentin (CSV) and fibrosis factors aSMA, Col1, IL-17. The assay is described as follows: Fibrosis factors and cell surface Vimentin in skin tissue of systemic sclerosis mouse, immunohistochemical staining. The following applies: 10 mg/kg orally daily, vs Vehicle group. It is filed as in vivo, B6 mouse. As for the experimental part:
as §1
In autoimmune diseases, it has been reported that Vimentin played an important role in cell interaction and the function of the immune system, and mutated or natural-type Vimentin was involved in the inflammatory responses and the pathogenesis of various autoimmune diseases (Autoimmun Rev. 2018 September: 17 (9): 926-934. doi: 10.1016/j.autrev.2018.04.004. Epub 2018 Jul. 17.), and thus, even in systemic sclerosis, the effect of the STAT6 inhibitor on the expression pattern of cell surface Vimentin (CSV) was also identified. Specifically, the expression of fibrosis factors aSMA, Col1, and IL-17 and CSV-positive cells in the skin tissue obtained in Example 4-1 was identified by immunohistochemical staining.

For assay [5] the test system is unchanged. Nature of the assay: Fibrosis factors and cell surface Vimentin in lung tissue of systemic sclerosis mouse, immunohistochemical staining. It counts as in vivo, B6 mouse. The conditions noted are these: 10 mg/kg orally daily, vs Vehicle group. As for the experimental part:
as §1
It was identified whether the STAT6 inhibition of the present disclosure inhibited cell surface Vimentin in the tissue. Specifically, the expression of fibrosis factors aSMA, Col1, and IL-17 and CSV-positive cells in the lung tissue obtained in Example 4-2 was identified by immunohistochemical staining.

Assay [6] relates to pSTAT6 and CD8 positive T cells. The assay is described as follows: pSTAT6 and CD8 positive T cells in skin and lung tissues of systemic sclerosis mouse, confocal microscopy. It is filed as in vivo, B6 mouse. The following applies: 10 mg/kg orally daily, vs Vehicle group.
The test system of assay [7] is Vimentin antigen-specific systemic sclerosis animal model. The assay is described as follows: Skin fibrosis and CSV expression in Vimentin antigen-specific systemic sclerosis animal model. It counts as in vivo, SKG mouse. The conditions noted are these: 10 mg/kg subcutaneously three times a week until week 5; vs vim SSc group. As for the experimental part:
In systemic sclerosis, Vimentin increased the disease symptom activity of systemic sclerosis, and thus, the effect of the STAT6 inhibitor was evaluated in a Vimentin antigen-specific systemic sclerosis animal model. Specifically, systemic sclerosis was induced by immunizing a 8-week-old SKG mouse with a Vimentin protein as an antigen and then subcutaneously injecting 100 μL of Bleomycin (BLM) six times a week for two weeks. Thereafter, on week 2 of systemic sclerosis induction, the mouse was secondary immunized with the Vimentin protein, and then subcutaneously injected with the STAT6 inhibitor of the present disclosure three times a week at a concentration of 10 mg/kg until week 5 from the starting of the experiment. Thereafter, at the end point of the experiment, the mouse was humanely sacrificed, and skin and lung tissues were obtained, and then the thickness of the skin dermal layer was identified by H&E staining, […] The specific experimental process was illustrated in FIG. 9, and as a control group, a Vimentin antigen-specific systemic sclerosis animal model (vim SSc group) with increased disease symptom activity by a Vimentin antigen was used.

In assay [8] the test system is CD103 and CD8 positive cells (CD8 TRM). Nature of the assay: IL-17 or IFNγ expression CD103 and CD8 positive cells (CD8 TRM) in skin of Vimentin antigen-specific systemic sclerosis animal model, confocal microscope. It counts as in vivo, SKG mouse. The following applies: 10 mg/kg subcutaneously three times a week; vs vim SSc group. As for the experimental part:
In systemic sclerosis, Vimentin increased the disease symptom activity of systemic sclerosis, and thus, the effect of the STAT6 inhibitor was evaluated in a Vimentin antigen-specific systemic sclerosis animal model. Specifically, systemic sclerosis was induced by immunizing a 8-week-old SKG mouse with a Vimentin protein as an antigen and then subcutaneously injecting 100 μL of Bleomycin (BLM) six times a week for two weeks. Thereafter, on week 2 of systemic sclerosis induction, the mouse was secondary immunized with the Vimentin protein, and then subcutaneously injected with the STAT6 inhibitor of the present disclosure three times a week at a concentration of 10 mg/kg until week 5 from the starting of the experiment. Thereafter, at the end point of the experiment, the mouse was humanely sacrificed, and skin and lung tissues were obtained, and then the thickness of the skin dermal layer was identified by H&E staining, and the expression of CSV in the lung tissue was identified by immunohistochemical staining. The specific experimental process was illustrated in FIG. 9, and as a control group, a Vimentin antigen-specific systemic sclerosis animal model (vim SSc group) with increased disease symptom activity by a Vimentin antigen was used. […]

Consider `NC(=O)c1cnc(Nc2ccc(N3CCOCC3)cc2)nc1NCc1c(F)ccc(F)c1F` [STAT6 inhibitor, YM-341619], for which, in the assay with spleen single cells, the M2/M1 expression ratio result is reported as “significantly reduced”; the “expression of M2 macrophages” value is “significantly reduced”; the “expression of Treg” value is reported as “significantly increased”; the “expression of pro-fibrosis T cells (IL-4+ T cells and IL-4+ and IL-17+ T cells)” value is “significantly reduced”. In assay [1], the “expression of fibrosis gene Col1a1” value is “significantly decreased”, the “expression of fibrosis gene TGF-β” value is “significantly decreased” and the “expression of fibrosis gene α-SMA” value was “significantly decreased”. Also, the “activity of M2 macrophages capable of inducing fibrosis in blood” value in the assay with M2 macrophages was “significantly reduced”. For the same molecule, the “thickness of the skin dermal layer” value in assay [2] is “significantly reduced”. Besides, the “histological score for pulmonary fibrosis” value in assay [3] is listed as “significantly reduced”. In addition, in assay [4], the “expression of Col1 in skin tissue” value is listed as “significantly reduced”, the “expression of IL-17 in skin tissue” value is listed as “significantly reduced”, the “expression of aSMA in skin tissue” value is listed as “significantly reduced” and the “number of CSV positive cells in skin tissue” value is given as “significantly reduced”. Besides, in assay [5], the “expression of Col1 in lung tissue” value was “significantly reduced”, the “expression of IL-17 in lung tissue” value is “significantly reduced”, the “expression of aSMA in lung tissue” value was “significantly reduced” and the “number of CSV positive cells in lung tissue” value is “significantly reduced”. Also, the “expression of pSTAT6 and CD8 positive T cells in lung tissue” value in assay [6] (lung) is “significantly reduced”. The “expression of pSTAT6 and CD8 positive T cells in skin tissue” value in [6] (skin) is reported as “significantly reduced”. In addition, in assay [7], the “expression of CSV in the skin tissue” value was “significantly reduced” and the “thickness of the skin dermis layer” value is on record as “significantly reduced”. Moreover, in [8], the “IFNγ expression CD103 and CD8 positive cells in skin tissue” value is “no change”; the “IL-17 expression CD103 and CD8 positive cells (CD8 TRM) in skin tissue” value is listed as “significantly reduced”.
